Read-outs that look alike come from different tables or passages of the source.
Tests used:
[1] = tested on: DOI-induced hypolocomotion in rats; experiment: Attenuation of DOI-induced hypolocomotion in rats; type: in vivo, rat; settings: 50 μmol/kg p.o. 60 min before DOI 0.3 mg/kg s.c.
Procedure: In this example, compounds of the invention, such as Compound 1 and Compound 26, were tested for inverse agonist activity by determining whether these compounds could attenuate DOI-induced hypolocomotion in rats in a novel environment. DOI is a potent 5HT2A/2C receptor agonist that crosses the blood-brain barrier.
Male Sprague-Dawley rats (Harlan, San Diego, Calif.) weighing between 200-300 g were used for all tests. Rats were housed three to four per cage. These rats were naïve to experimental testing and drug treatment. Rats were handled one to three days before testing to acclimate them to experimental manipulation. Rats were fasted overnight prior to testing.
(R)-DOI HCl (C11H16INO2·HCl) was obtained from Sigma-Aldrich, and was dissolved in 0.9% saline. Compounds of the invention were synthesized at Arena Pharmaceuticals Inc. and were dissolved in 100% PEG400. […]
The “Motor Monitor” (Hamilton-Kinder, Poway, Calif.) was used for all activity measurement. This apparatus recorded rears using infrared photobeams. […]
In determining the effects of compounds of the invention on DOI-induced hypoactivity, animals were first injected with vehicle or the compound of the invention (50 μmol/kg) in their home cages. […] 10 min after DOI administration, animals were placed into the activity apparatus and rearing activity was measured for 10 minutes.
Results (total rears over 10 minutes) were analyzed by t-test. […]

5HT2A receptor = 5HT2A receptor (Macaca mulatta (Rhesus macaque), UniProt P50128); experiment: Serotonin 5-HT2A receptor occupancy study in monkey (PET, 18F-altanserin); type: in vivo; settings: iv
[2] = Plasma drug concentration in the PET occupancy study; type: in vivo, rhesus monkey; settings: 0.5 mg/kg i.v.; after 8 hours
Procedure: The monkey was anesthetized by using ketamine (10 mg/kg) and was maintained using 0.7 to 1.25% isoflurane. Typically, the monkey had two i.v. lines, one on each arm. One i.v. line was used to administer the radioligand, while the other line was used to draw blood samples for pharmacokinetic data of the radioligand as well as the cold drugs. Generally, rapid blood samples were taken as the radioligand is administered which then taper out by the end of the scan. A volume of approximately 1 ml of blood was taken per time point, which was spun down, and a portion of the plasma was counted for radioactivity in the blood.
The results of both an 8 hour and 24 hour study are shown. The test compound was administered via i.v. infusion in 5.0 ml of 80% PEG400. For the 8 hour study, venous blood samples were drawn at 5 minutes post Compound 1 and 15 minutes before PET scan. For the 24 hour study, venous blood samples were drawn at 5 minutes post Compound 1 and 10 minutes before PET scan.

male Wistar rats = experiment: Effect on delta power, sleep and wakefulness in rats (EEG/EMG); type: in vivo, rat; settings: oral gavage
Procedure: In this example, the effect of Compounds of the Invention, such as Compound 1 and Compound 26, on sleep and wakefulness was compared to the reference drug zolpidem. Drugs were administered during the middle of the light period (inactivity period).
Briefly, four compounds of the invention, including Compound 1 (1.0 mg/kg) and Compound 26 (1.4 mg/kg), were tested for their effects on sleep parameters and were compared to zolpidem (5.0 mg/kg, Sigma, St. Louis, Mo.) and vehicle control (80% Tween 80, Sigma, St. Louis, Mo.). A repeated measures design was employed in which each rat was to receive seven separate dosings via oral gavage. The first and seventh dosings were vehicle and the second through sixth were the test compounds and zolpidem given in counter-balanced order. Since all dosings were administered while the rats were connected to the recording apparatus, 60% CO2/40% O2 gas was employed for light sedation during the oral gavage process. Rats appeared fully recovered within 60 seconds following the procedure. A minimum of three days elapsed between dosings. […] Dosing typically occurred between 13:15 and 13:45 using a 24 hour notation. All dosing solutions were made fresh on the day of dosing. Following each dosing, animals were continuously recorded until lights out the following day (˜30 hours).
Animals were housed in a temperature controlled recording room under a 12/12 light/dark cycle (lights on at 7:00 am) and had food and water available ad libitum. Room temperature (24+2° C.), humidity (50+20% relative humidity) and lighting conditions were monitored continuously via computer. Drugs were administered via oral gavage as described above, with a minimum of three days between dosings. Animals were inspected daily in accordance with NIH guidelines. […]
EEG and EMG data were scored visually in 10 second epochs for waking (W), REMS, NREMS. Scored data were analyzed and expressed as time spent in each state per half hour. Sleep bout length and number of bouts for each state were calculated in hourly bins. […]

[3] = 24 months of treatment; patients; cited from earlier work
[4] = glaucoma patients; cited from earlier work

## COc1ccc(NC(=O)Nc2ccc(Cl)cc2)cc1-c1c(Br)cnn1C [Compound 1, 1-[3-(4-Bromo-2-methyl-2H-pyrazol-3-yl)-4-methoxy-phenyl]-3-(4-Chloro-phenyl)-urea]
[1]
  DOI-induced hypolocomotion (total rears over 10 minutes): attenuated DOI-induced hypolocomotion
5HT2A receptor; read-out: 5HT2A receptor occupancy, 0.5 mg/kg i.v., 8 hours following drug administration, cortical regions
  receptor occupancy at 0.5 mg/kg: ~90%
5HT2A receptor; read-out: 5HT2A receptor occupancy, 0.5 mg/kg i.v., 24 hours post-injection
  receptor occupancy at 0.5 mg/kg: ~80%
[2]
  test drug concentrations in plasma samples: no measurable test drug concentrations
Male Wistar rats; 1.0 mg/kg, second hour
  NREMS bout length: significantly increased
Male Wistar rats; Compound 1 1.0 mg/kg, Compound 26 1.4 mg/kg, fourth hour
  REMS bout length: significantly increased
Male Wistar rats; Compound 1 1.0 mg/kg, Compound 26 1.4 mg/kg, second hour following dosing (15:00), vs vehicle
  delta power during NREMS: significantly increased

## COc1cccc(CCc2ccccc2OCC(CN(C)C)OC(=O)CCC(=O)O)c1 (stereo not drawn) [sarpogrelate]
[3]
  urinary albumin excretion level: significantly reduced
[4]
  IOP: significantly lower
